The compounds below were run against baculovirus-expressed ALK (Homo sapiens, UniProt Q9UM73) (assay: ALK Kinase Assay (ELISA/TRF, PLC-γ substrate)). Details: read-out: ALK Kinase Inhibition (IC50).
Chain of baculovirus-expressed ALK (Q9UM73 19-1620): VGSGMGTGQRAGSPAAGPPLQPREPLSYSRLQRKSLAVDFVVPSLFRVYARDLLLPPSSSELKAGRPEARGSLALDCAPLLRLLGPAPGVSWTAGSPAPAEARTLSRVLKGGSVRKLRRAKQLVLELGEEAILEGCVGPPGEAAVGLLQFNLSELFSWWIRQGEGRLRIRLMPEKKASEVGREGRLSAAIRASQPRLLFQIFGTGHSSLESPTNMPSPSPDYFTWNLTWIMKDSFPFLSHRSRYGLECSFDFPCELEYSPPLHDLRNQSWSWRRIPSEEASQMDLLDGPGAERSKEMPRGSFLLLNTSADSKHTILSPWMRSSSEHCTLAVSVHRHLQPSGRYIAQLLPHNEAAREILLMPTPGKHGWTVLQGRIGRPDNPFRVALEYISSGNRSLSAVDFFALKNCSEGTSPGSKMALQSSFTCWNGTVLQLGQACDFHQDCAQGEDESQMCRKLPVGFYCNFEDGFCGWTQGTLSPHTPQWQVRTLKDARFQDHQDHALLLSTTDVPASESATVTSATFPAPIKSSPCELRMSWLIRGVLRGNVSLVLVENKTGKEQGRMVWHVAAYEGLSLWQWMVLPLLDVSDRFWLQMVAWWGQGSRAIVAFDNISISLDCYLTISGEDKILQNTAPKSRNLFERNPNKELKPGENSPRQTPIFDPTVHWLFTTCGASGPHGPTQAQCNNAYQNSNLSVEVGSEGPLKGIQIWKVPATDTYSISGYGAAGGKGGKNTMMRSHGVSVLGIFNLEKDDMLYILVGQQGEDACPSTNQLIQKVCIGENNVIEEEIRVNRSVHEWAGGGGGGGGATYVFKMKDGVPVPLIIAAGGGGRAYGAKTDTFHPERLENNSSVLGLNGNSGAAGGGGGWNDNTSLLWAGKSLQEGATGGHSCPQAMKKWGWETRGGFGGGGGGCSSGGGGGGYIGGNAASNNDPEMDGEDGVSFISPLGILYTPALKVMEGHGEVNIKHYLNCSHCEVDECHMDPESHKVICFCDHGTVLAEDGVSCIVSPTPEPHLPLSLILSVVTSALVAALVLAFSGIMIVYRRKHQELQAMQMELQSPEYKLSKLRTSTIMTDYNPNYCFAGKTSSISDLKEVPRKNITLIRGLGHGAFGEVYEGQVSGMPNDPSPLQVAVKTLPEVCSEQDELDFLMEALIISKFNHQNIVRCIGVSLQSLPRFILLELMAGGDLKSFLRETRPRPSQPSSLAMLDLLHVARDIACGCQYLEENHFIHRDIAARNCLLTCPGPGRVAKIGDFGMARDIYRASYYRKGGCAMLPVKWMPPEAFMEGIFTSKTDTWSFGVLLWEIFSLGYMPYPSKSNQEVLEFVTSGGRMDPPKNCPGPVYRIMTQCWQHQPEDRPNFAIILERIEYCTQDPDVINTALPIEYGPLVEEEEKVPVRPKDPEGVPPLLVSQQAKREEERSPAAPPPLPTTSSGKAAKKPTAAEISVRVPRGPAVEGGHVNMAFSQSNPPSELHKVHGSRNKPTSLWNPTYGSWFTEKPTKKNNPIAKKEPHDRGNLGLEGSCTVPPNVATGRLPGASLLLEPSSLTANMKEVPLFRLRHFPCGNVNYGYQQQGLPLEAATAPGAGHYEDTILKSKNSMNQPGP
Type: biochemical
Protocol: Example compounds were tested for their ability to inhibit the kinase activity of baculovirus-expressed ALK using a modification of the ELISA protocol reported for trkA in Angeles, T. S. et al., Anal. Biochem. 1996, 236, 49-55, which is incorporated herein by reference in its entirety. Phosphorylation of the substrate, phospholipase C-gamma (PLC-γ) generated as a fusion protein with glutathione S-transferase (GST) as reported in Rotin, D. et al., EMBO J. 1992, 11, 559-567, which is incorporated herein by reference in its entirety, was detected with a europium-labeled anti-phosphotyrosine antibody and measured by time-resolved fluorescence (TRF). Briefly, each 96-well plate was coated with 100 μL/well of 10 μg/mL substrate (phospholipase C-γ) in Tris-buffered saline (TBS). […] The reaction was initiated by adding enzyme (30 ng/ml ALK) and was allowed to proceed at 37° C. for 15 minutes. Detection of the phosphorylated product was performed by adding 100 μl/well of Eu-N1 labeled PT66 antibody (Perkin Elmer # AD0041). Incubation at 37° C. then proceeded for one (1) hour, followed by addition of 100 μL enhancement solution (Wallac #1244-105). The plate was gently agitated and after thirty minutes, the fluorescence of the resulting solution was measured using the EnVision 2100 (or 2102) multilabel plate reader (Perkin Elmer).
Data analysis was performed using ActivityBase (IDBS, Guilford, UK). IC50 values were calculated by plotting percent inhibition versus log10 of the concentration of compound and fitting to the nonlinear regression sigmoidal dose-response (variable slope) equation in XLFit (IDBS, Guilford, UK).
An IC50 of 100 to 1000 nM was found for `O=C(NCC1CCCO1)c1ccc(-c2cnc3c(c2)N(Cc2cc(Cl)ccc2C(F)(F)F)CCN3)cc1` (centres unmarked) [Example 417, 4-{1-[5-Chloro-2-(trifluoromethyl)benzyl]-1,2,3,4-tetrahydropyrido[2,3-b]pyrazin-7-yl}-N-(tetrahydrofuran-2-ylmethyl)benzamide] in this work.
An IC50 of less than 100 nM was found for `O=C(c1ccc(-c2cnc3c(c2)N(Cc2cc(Cl)ccc2C(F)(F)F)CCN3)cc1)N1CCN(C(=O)C2CCCO2)CC1` (centres unmarked) [Example 415, (4-{1-[5-Chloro-2-(trifluoromethyl)benzyl]-1,2,3,4-tetrahydropyrido[2,3-b]pyrazin-7-yl}phenyl)-[4-(tetrahydrofuran-2-carbonyl)piperazin-1-yl]methanone] in this work.
An IC50 of 100 to 1000 nM was found for `NS(=O)(=O)c1ccc(CNC(=O)c2ccc(-c3cnc4c(c3)N(Cc3cc(Cl)ccc3C(F)(F)F)CCN4)cc2)cc1` [Example 429, 4-{1-[5-Chloro-2-(trifluoromethyl)benzyl]-1,2,3,4-tetrahydropyrido[2,3-b]pyrazin-7-yl}-N-(4-sulfamoylbenzyl)benzamide] in this work.
An IC50 of 100 to 1000 nM was found for `COc1ccc(CN2CCN(C(=O)c3ccc(-c4cnc5c(c4)N(Cc4cc(Cl)ccc4C(F)(F)F)CCN5)cc3)CC2)cc1` [Example 384, (4-{1-[5-Chloro-2-(trifluoromethyl)benzyl]-1,2,3,4-tetrahydropyrido[2,3-b]pyrazin-7-yl}phenyl)-[4-(4-methoxybenzyl)piperazin-1-yl]methanone] in this work.
An IC50 of 100 to 1000 nM was found for `O=C(c1cccc(-c2cnc3c(c2)N(Cc2cc(Cl)ccc2C(F)(F)F)CCN3)c1)N1CCC(N2CCOCC2)CC1` [Example 364, (3-{1-[5-Chloro-2-(trifluoromethyl)benzyl]-1,2,3,4-tetrahydropyrido[2,3-b]pyrazin-7-yl}phenyl)-(4-morpholin-4-ylpiperidin-1-yl)methanone] in this work.
An IC50 of less than 100 nM was found for `O=C(NC1CCN(Cc2ccccc2)C1)c1cccc(-c2cnc3c(c2)N(Cc2cc(Cl)ccc2C(F)(F)F)CCN3)c1` (centres unmarked) [Example 361, N-(1-Benzylpyrrolidin-3-yl)-3-{1-[5-chloro-2-(trifluoromethyl)benzyl]-1,2,3,4-tetrahydropyrido[2,3-b]pyrazin-7-yl}benzamide] in this work.
An IC50 of 100 to 1000 nM was found for `O=C(NC1CCc2ccccc21)c1cccc(-c2cnc3c(c2)N(Cc2cc(Cl)ccc2C(F)(F)F)CCN3)c1` (centres unmarked) [Example 343, 3-{1-[5-Chloro-2-(trifluoromethyl)benzyl]-1,2,3,4-tetrahydropyrido[2,3-b]pyrazin-7-yl}-N-indan-1-ylbenzamide] in this work.
An IC50 of 100 to 1000 nM was found for `O=C(NCc1ccccc1Cl)c1ccc(-c2cnc3c(c2)N(Cc2cc(Cl)ccc2C(F)(F)F)CCN3)cc1` [Example 412, N-(2-Chlorobenzyl)-4-{1-[5-chloro-2-(trifluoromethyl)benzyl]-1,2,3,4-tetrahydropyrido[2,3-b]pyrazin-7-yl}benzamide] in this work.
An IC50 of less than 100 nM was found for `CC(=O)N1CCN(C(=O)c2ccc(-c3cnc4c(c3)N(Cc3cc(Cl)ccc3C(F)(F)F)CCN4)cc2)CC1` [Example 392, 1-[4-(4-{1-[5-Chloro-2-(trifluoromethyl)benzyl]-1,2,3,4-tetrahydropyrido[2,3-b]pyrazin-7-yl}benzoyl)piperazin-1-yl]ethanone] in this work.
An IC50 of 100 to 1000 nM was found for `COc1cccc(N2CCN(C(=O)c3cccc(-c4cnc5c(c4)N(Cc4cc(Cl)ccc4C(F)(F)F)CCN5)c3)CC2)c1` [Example 344, (3-{1-[5-Chloro-2-(trifluoromethyl)benzyl]-1,2,3,4-tetrahydropyrido[2,3-b]pyrazin-7-yl}phenyl)-[4-(3-methoxyphenyl)piperazin-1-yl]methanone] in this work.
An IC50 of less than 100 nM was found for `O=C(c1ccc(-c2cnc3c(c2)N(Cc2cc(Cl)ccc2C(F)(F)F)CCN3)cc1)N1CCN(CCc2ccccn2)CC1` [Example 394, (4-{1-[5-Chloro-2-(trifluoromethyl)benzyl]-1,2,3,4-tetrahydropyrido[2,3-b]pyrazin-7-yl}phenyl)-[4-(2-pyridin-2-yl-ethyl)piperazin-1-yl]methanone] in this work.
Further: 1 µM ATP (Km level).
